Assay results from US4206235A, “Novel 2,5-dihalophenyl-β-substituted sulfone fungicides” (priority 1976, dated 1980).
Values after ≈ are worked out from the molar mass of the structure shown.

How the values were obtained:
[1] = system: Fusarium oxysporum sp. f.lycopersici; experiment: Fungitoxicity in culture media (agar), growth inhibition; type: cell-based; conditions: 50% inhibition of growth, read-out: ED50 (the source's name)
Description: (§1) Acetone solutions of the compound were mixed with an aliquot of distilled water and the fine suspension obtained was mixed with cooled but melted agar medium and poured into Petri dishes.
(§2) The tested fungi were grown on the solidified media. Growth of the fungus was measured and percent inhibition was calculated by comparing with the appropriate acetone-water controls. Media were usually Martin's or potato-dextrose agar media.
(§3) ED50 = effective dose, sufficient for the 50% inhibition of growth of the fungus, expressed in p.p.m.

Pythium aphanidermatum = experiment: as above; type: cell-based; conditions: 50% inhibition of growth, read-out: ED50 (the source's name)
Description: as §1, §2, §3

Rhizoctonia bataticola = experiment: as above; type: cell-based; conditions: Macrophomina phaseolina, 50% inhibition of growth, read-out: ED50 (the source's name)
Description: as §1, §2, §3

Rhizoctonia solani = experiment: as above; type: cell-based; conditions: 50% inhibition of growth, read-out: ED50 (the source's name)
Description: as §1, §2, §3

Rhizopus stolonifer = experiment: as above; type: cell-based; conditions: 50% inhibition of growth, read-out: ED50 (the source's name)
Description: as §1, §2, §3

Sclerotinia rolfsil = experiment: as above; type: cell-based; conditions: 50% inhibition of growth, read-out: ED50 (the source's name)
Description: as §1, §2, §3

Venturia inaequalis [2] = experiment: Control of apple scab in greenhouse test, apple seedlings; type: in vivo; conditions: Barrat & Horsfall Scale, 1 = 0%, 12 = 100% leaf scabbed, 15 days after inoculation
Venturia inaequalis [3] = experiment: Comparative performance of 2 compounds and 2 commercial fungicides, spray treated plants in greenhouse; type: in vivo
Penicillium funiculosum = experiment: Halo test on plasticized PVC sheeting; type: cell-based; design: key to growth under the test sample (GUS): +: no reduction in growth; ±: slight reduction in growth; .-+.: moderate reduction in growth; -: complete reduction in growth
Trichoderma viride = experiment: Halo test on plasticized PVC sheeting; type: cell-based; design: key to growth under the test sample (GUS): +: no reduction in growth; ±: slight reduction in growth; .-+.: moderate reduction in growth; -: complete reduction in growth
Aspergillus flavus = experiment: Halo test on plasticized PVC sheeting; type: cell-based; design: key to growth under the test sample (GUS): +: no reduction in growth; ±: slight reduction in growth; .-+.: moderate reduction in growth; -: complete reduction in growth
Aspergillus niger = experiment: Halo test on plasticized PVC sheeting; type: cell-based; design: key to growth under the test sample (GUS): +: no reduction in growth; ±: slight reduction in growth; .-+.: moderate reduction in growth; -: complete reduction in growth
[4] = system: Cladosporium cladosporoides; experiment: Halo test on plasticized PVC sheeting; type: cell-based; design: key to growth under the test sample (GUS): +: no reduction in growth; ±: slight reduction in growth; .-+.: moderate reduction in growth; -: complete reduction in growth
Paecilomyces varioti = experiment: Halo test on plasticized PVC sheeting; type: cell-based; design: key to growth under the test sample (GUS): +: no reduction in growth; ±: slight reduction in growth; .-+.: moderate reduction in growth; -: complete reduction in growth
Alternaria tenuis = experiment: Halo test on plasticized PVC sheeting; type: cell-based; design: key to growth under the test sample (GUS): +: no reduction in growth; ±: slight reduction in growth; .-+.: moderate reduction in growth; -: complete reduction in growth; conditions: for Zone of growth inhibition (halo): brackets = growth partially suppressed
[5] = system: mixed spore suspension of Aspergillus flavus, Aspergillus niger, Paecilomyces varioti, Penicillium funiculosum, Trichoderma viride, Alternaria tenuis …; experiment: Weight Loss Test of PVC sheeting
[6] = Test No.1, inoculum 2.5 ×10^5 /ml, 50 p.p.m.
[7] = Test No.1, inoculum 2.5 ×10^5 /ml, 100 p.p.m.
[8] = Test No.1, inoculum 2.5 ×10^5 /ml, 500 p.p.m.
[9] = Test No.2, inoculum 5.0 ×10^5 /ml, 50 p.p.m.
[10] = Test No.2, inoculum 5.0 ×10^5 /ml, 100 p.p.m.
[11] = Test No.2, inoculum 5.0 ×10^5 /ml, 500 p.p.m.
[12] = 0.5% in PVC sheeting, brackets = growth partially suppressed

O=S(=O)(CC(Cl)Cl)c1cc(Cl)ccc1Cl [Example 1, 2,5-dichlorophenyl-β,β'-dichloroethyl sulfone]
IC50 [1]: 50 µg/mL (≈ 162 µM) | IC50 (Pythium aphanidermatum): 10 µg/mL (≈ 32.5 µM) | IC50 (Rhizoctonia bataticola): 5 µg/mL (≈ 16.2 µM) | IC50 (Rhizoctonia solani): 5 µg/mL (≈ 16.2 µM) | IC50 (Rhizopus stolonifer): 50 µg/mL (≈ 162 µM) | IC50 (Sclerotinia rolfsil): 10 µg/mL (≈ 32.5 µM) | Mean disease severity (Venturia inaequalis [2]; 50 p.p.m.): 3.5 | Mean disease severity (Venturia inaequalis [2]; 100 p.p.m.): 3.0 | Mean disease severity (Venturia inaequalis [2]; 500 p.p.m.): 1.0 | Disease control (Venturia inaequalis [3]; [6]): 63.6% | Disease control (Venturia inaequalis [3]; [7]): 97.4% | Disease control (Venturia inaequalis [3]; [8]): 100% | Disease control (Venturia inaequalis [3]; [9]): 98.2% | Disease control (Venturia inaequalis [3]; [10]): 99.5% | Disease control (Venturia inaequalis [3]; [11]): 100% | growth under the test sample (GUS) (Penicillium funiculosum; 0.5% in PVC sheeting): + | Zone of growth inhibition (halo) (Penicillium funiculosum; 1% in PVC sheeting): 2.5 millimetres | growth under the test sample (GUS) (Penicillium funiculosum; 1% in PVC sheeting): .-+. | Zone of growth inhibition (halo) (Trichoderma viride; 0.5% in PVC sheeting): 0 millimetres | growth under the test sample (GUS) (Trichoderma viride; 0.5% in PVC sheeting): + | Zone of growth inhibition (halo) (Trichoderma viride; 1% in PVC sheeting): 0 millimetres | growth under the test sample (GUS) (Trichoderma viride; 1% in PVC sheeting): + | Zone of growth inhibition (halo) (Aspergillus flavus; 0.5% in PVC sheeting): 0 millimetres | growth under the test sample (GUS) (Aspergillus flavus; 0.5% in PVC sheeting): .-+. | Zone of growth inhibition (halo) (Aspergillus flavus; 1% in PVC sheeting): 0 millimetres | growth under the test sample (GUS) (Aspergillus flavus; 1% in PVC sheeting): .-+. | growth under the test sample (GUS) (Aspergillus niger; 0.5% in PVC sheeting): .-+. | Zone of growth inhibition (halo) (Aspergillus niger; 1% in PVC sheeting): 6 millimetres | growth under the test sample (GUS) (Aspergillus niger; 1% in PVC sheeting): - | growth under the test sample (GUS) ([4]; 0.5% in PVC sheeting): - | Zone of growth inhibition (halo) [4, 12]: 5 millimetres | Zone of growth inhibition (halo) ([4]; 1% in PVC sheeting): 12 millimetres | growth under the test sample (GUS) ([4]; 1% in PVC sheeting): - | Zone of growth inhibition (halo) (Paecilomyces varioti; 0.5% in PVC sheeting): 0 millimetres | growth under the test sample (GUS) (Paecilomyces varioti; 0.5% in PVC sheeting): + | Zone of growth inhibition (halo) (Paecilomyces varioti; 1% in PVC sheeting): 15 millimetres | growth under the test sample (GUS) (Paecilomyces varioti; 1% in PVC sheeting): - | growth under the test sample (GUS) (Alternaria tenuis; 0.5% in PVC sheeting): - | Zone of growth inhibition (halo) (Alternaria tenuis; 0.5% in PVC sheeting): 11 millimetres | growth under the test sample (GUS) (Alternaria tenuis; 1% in PVC sheeting): - | Zone of growth inhibition (halo) (Alternaria tenuis; 1% in PVC sheeting): 17 millimetres

O=S(=O)(CC(Cl)(Cl)Cl)c1cc(Br)ccc1Br [Example 8, 2,5-dibromophenyl-β,β',β"-trichloroethyl sulfone]
Mean disease severity (Venturia inaequalis [2]; 50 p.p.m.): 6.0 | Mean disease severity (Venturia inaequalis [2]; 100 p.p.m.): 2.0 | Mean disease severity (Venturia inaequalis [2]; 500 p.p.m.): 1.3 | Disease control (Venturia inaequalis [3]; [6]): 86.4% | Disease control (Venturia inaequalis [3]; [7]): 97.4% | Disease control (Venturia inaequalis [3]; [8]): 100% | Disease control (Venturia inaequalis [3]; [9]): 99.9% | Disease control (Venturia inaequalis [3]; [10]): 100% | Disease control (Venturia inaequalis [3]; [11]): 99.9%

O=S(=O)(CC(Cl)(Cl)Cl)c1cc(Cl)ccc1Cl [Example 2, 2,5-dichlorophenyl,β,β',β"-trichloroethyl sulfone]
IC50 [1]: 50 µg/mL (≈ 146 µM) | IC50 (Pythium aphanidermatum): 5 µg/mL (≈ 14.6 µM) | IC50 (Rhizoctonia bataticola): 10 µg/mL (≈ 29.2 µM) | IC50 (Rhizoctonia solani): 10 µg/mL (≈ 29.2 µM) | IC50 (Sclerotinia rolfsil): 10 µg/mL (≈ 29.2 µM) | Mean disease severity (Venturia inaequalis [2]; 50 p.p.m.): 5.0 | Mean disease severity (Venturia inaequalis [2]; 100 p.p.m.): 2.9 | Mean disease severity (Venturia inaequalis [2]; 500 p.p.m.): 1.3 | growth under the test sample (GUS) (Penicillium funiculosum; 0.5% in PVC sheeting): + | Zone of growth inhibition (halo) (Penicillium funiculosum; [12]): 0 millimetres | Zone of growth inhibition (halo) (Penicillium funiculosum; 1% in PVC sheeting): 0 millimetres | growth under the test sample (GUS) (Penicillium funiculosum; 1% in PVC sheeting): + | Zone of growth inhibition (halo) (Trichoderma viride; 0.5% in PVC sheeting): 0 millimetres | growth under the test sample (GUS) (Trichoderma viride; 0.5% in PVC sheeting): + | Zone of growth inhibition (halo) (Trichoderma viride; 1% in PVC sheeting): 0 millimetres | growth under the test sample (GUS) (Trichoderma viride; 1% in PVC sheeting): + | Zone of growth inhibition (halo) (Aspergillus flavus; 0.5% in PVC sheeting): 0 millimetres | growth under the test sample (GUS) (Aspergillus flavus; 0.5% in PVC sheeting): + | Zone of growth inhibition (halo) (Aspergillus flavus; 1% in PVC sheeting): 0 millimetres | growth under the test sample (GUS) (Aspergillus flavus; 1% in PVC sheeting): + | growth under the test sample (GUS) (Aspergillus niger; 0.5% in PVC sheeting): + | Zone of growth inhibition (halo) (Aspergillus niger; [12]): 0 millimetres | Zone of growth inhibition (halo) (Aspergillus niger; 1% in PVC sheeting): 0 millimetres | growth under the test sample (GUS) (Aspergillus niger; 1% in PVC sheeting): + | growth under the test sample (GUS) ([4]; 0.5% in PVC sheeting): .-+. | Zone of growth inhibition (halo) ([4]; 1% in PVC sheeting): 8 millimetres | growth under the test sample (GUS) ([4]; 1% in PVC sheeting): - | Zone of growth inhibition (halo) (Paecilomyces varioti; 0.5% in PVC sheeting): 0 millimetres | growth under the test sample (GUS) (Paecilomyces varioti; 0.5% in PVC sheeting): + | Zone of growth inhibition (halo) (Paecilomyces varioti; 1% in PVC sheeting): 0 millimetres | growth under the test sample (GUS) (Paecilomyces varioti; 1% in PVC sheeting): + | growth under the test sample (GUS) (Alternaria tenuis; 0.5% in PVC sheeting): .-+. | growth under the test sample (GUS) (Alternaria tenuis; 1% in PVC sheeting): -

O=S(=O)(CC(Cl)c1ccccc1)c1cc(Cl)ccc1Cl (stereo not drawn) [Example 5, 2,5-dichlorophenyl-β-chloro-β-phenylethyl sulfone]
IC50 [1]: > 50 µg/mL | IC50 (Rhizoctonia bataticola): 50 µg/mL (≈ 143 µM) | IC50 (Rhizoctonia solani): 20 µg/mL (≈ 57.2 µM) | Mean disease severity (Venturia inaequalis [2]; 50 p.p.m.): 6.0 | Mean disease severity (Venturia inaequalis [2]; 100 p.p.m.): 2.3 | Mean disease severity (Venturia inaequalis [2]; 500 p.p.m.): 3.5

O=S(=O)(CC(Cl)Br)c1cc(Cl)ccc1Cl (stereo not drawn) [Example 6, 2,5-dichlorophenyl-β-chloro-β-bromoethyl sulfone]
IC50 [1]: > 50 µg/mL | IC50 (Rhizoctonia bataticola): 20 µg/mL (≈ 56.7 µM) | IC50 (Rhizoctonia solani): 10 µg/mL (≈ 28.4 µM) | Mean disease severity (Venturia inaequalis [2]; 50 p.p.m.): 4.0 | Mean disease severity (Venturia inaequalis [2]; 100 p.p.m.): 1.0 | Mean disease severity (Venturia inaequalis [2]; 500 p.p.m.): 1.0

[Cl][Hg][Cl] [mercuric chloride, reference compound]
changes in weight (in words) [5]: only negligible changes in weight

O=S(=O)(CC(Cl)Cl)c1cc(Br)ccc1Br [Example 7, 2,5-dibromophenyl-β,β'-dichloroethyl sulfone]
IC50 [1]: 50 µg/mL (≈ 126 µM) | IC50 (Rhizoctonia bataticola): 20 µg/mL (≈ 50.4 µM) | IC50 (Rhizoctonia solani): 5 µg/mL (≈ 12.6 µM) | IC50 (Rhizopus stolonifer): 50 µg/mL (≈ 126 µM) | Mean disease severity (Venturia inaequalis [2]; 50 p.p.m.): 5.7 | Mean disease severity (Venturia inaequalis [2]; 100 p.p.m.): 5.3 | Mean disease severity (Venturia inaequalis [2]; 500 p.p.m.): 5.0
